40 compounds from patent publication US20230079819A1, “COMPOUNDS AND USES THEREOF” (Foghorn Therapeutics Inc., priority 2019, published 2023) can be followed below.

Read-outs that look alike come from different tables or passages of the source.

The target of one assay is T1, BRG-1 (Homo sapiens, UniProt P51532).
T1 construct: made in house; host or cells: High Five insect cells
Briefly: ATPase catalytic activity of BRG-1, ADP-Glo in vitro biochemical assay. The conditions noted are these: ATPase catalytic activity, 30 nM BRG-1, 400 μM ATP. A general note: ADP-Glo turns the ADP formed in a reaction into a luminescent signal.

The next assay has as its target T2, BRM (Homo sapiens, UniProt P51531).
T2 construct: made in house; host or cells: High Five insect cells
Description: ATPase catalytic activity of BRM, ADP-Glo in vitro biochemical assay. The conditions noted are these: ATPase catalytic activity, 30 nM BRM, 400 μM ATP.

T2 sequence (P51531 whole entry): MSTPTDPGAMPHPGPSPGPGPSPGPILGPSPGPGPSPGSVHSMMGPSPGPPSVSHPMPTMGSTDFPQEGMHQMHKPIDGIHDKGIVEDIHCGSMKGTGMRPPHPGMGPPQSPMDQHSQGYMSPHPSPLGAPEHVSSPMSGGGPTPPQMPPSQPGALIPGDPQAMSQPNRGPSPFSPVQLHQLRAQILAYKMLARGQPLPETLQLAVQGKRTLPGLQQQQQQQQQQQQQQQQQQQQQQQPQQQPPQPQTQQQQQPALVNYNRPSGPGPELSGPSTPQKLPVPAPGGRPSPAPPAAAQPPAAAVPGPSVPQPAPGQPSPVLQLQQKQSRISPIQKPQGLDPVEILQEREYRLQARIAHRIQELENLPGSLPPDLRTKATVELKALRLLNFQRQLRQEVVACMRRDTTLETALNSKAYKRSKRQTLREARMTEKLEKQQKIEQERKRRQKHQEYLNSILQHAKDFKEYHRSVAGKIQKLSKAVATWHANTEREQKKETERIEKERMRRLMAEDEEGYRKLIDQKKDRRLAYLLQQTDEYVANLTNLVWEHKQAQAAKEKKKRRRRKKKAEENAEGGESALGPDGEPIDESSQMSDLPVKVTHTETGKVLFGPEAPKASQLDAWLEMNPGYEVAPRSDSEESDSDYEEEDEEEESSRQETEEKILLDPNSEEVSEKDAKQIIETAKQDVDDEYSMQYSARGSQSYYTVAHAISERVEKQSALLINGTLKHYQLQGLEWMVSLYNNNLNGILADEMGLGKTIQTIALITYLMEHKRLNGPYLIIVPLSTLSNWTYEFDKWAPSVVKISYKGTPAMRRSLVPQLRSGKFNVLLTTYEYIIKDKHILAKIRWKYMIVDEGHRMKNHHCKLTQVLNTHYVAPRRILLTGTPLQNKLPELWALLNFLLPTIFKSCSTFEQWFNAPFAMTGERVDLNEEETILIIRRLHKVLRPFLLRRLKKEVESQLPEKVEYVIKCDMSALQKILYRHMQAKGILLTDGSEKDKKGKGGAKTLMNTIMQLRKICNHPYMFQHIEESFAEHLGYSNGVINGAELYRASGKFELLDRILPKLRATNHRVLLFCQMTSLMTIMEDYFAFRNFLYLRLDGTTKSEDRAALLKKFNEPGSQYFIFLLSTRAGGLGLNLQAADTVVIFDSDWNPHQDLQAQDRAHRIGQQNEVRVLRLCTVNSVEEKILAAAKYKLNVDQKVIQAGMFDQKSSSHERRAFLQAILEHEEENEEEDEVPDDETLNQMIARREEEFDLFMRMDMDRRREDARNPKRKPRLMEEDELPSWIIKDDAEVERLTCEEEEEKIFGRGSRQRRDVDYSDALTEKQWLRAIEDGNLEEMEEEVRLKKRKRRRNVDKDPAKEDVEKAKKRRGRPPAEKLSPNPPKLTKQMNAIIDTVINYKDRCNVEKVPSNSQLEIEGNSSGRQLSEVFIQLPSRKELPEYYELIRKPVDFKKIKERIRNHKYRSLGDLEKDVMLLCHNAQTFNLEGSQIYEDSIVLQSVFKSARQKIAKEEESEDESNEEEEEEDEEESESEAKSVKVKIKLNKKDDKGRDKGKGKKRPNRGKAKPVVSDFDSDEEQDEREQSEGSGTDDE
T1 sequence (P51532 whole entry): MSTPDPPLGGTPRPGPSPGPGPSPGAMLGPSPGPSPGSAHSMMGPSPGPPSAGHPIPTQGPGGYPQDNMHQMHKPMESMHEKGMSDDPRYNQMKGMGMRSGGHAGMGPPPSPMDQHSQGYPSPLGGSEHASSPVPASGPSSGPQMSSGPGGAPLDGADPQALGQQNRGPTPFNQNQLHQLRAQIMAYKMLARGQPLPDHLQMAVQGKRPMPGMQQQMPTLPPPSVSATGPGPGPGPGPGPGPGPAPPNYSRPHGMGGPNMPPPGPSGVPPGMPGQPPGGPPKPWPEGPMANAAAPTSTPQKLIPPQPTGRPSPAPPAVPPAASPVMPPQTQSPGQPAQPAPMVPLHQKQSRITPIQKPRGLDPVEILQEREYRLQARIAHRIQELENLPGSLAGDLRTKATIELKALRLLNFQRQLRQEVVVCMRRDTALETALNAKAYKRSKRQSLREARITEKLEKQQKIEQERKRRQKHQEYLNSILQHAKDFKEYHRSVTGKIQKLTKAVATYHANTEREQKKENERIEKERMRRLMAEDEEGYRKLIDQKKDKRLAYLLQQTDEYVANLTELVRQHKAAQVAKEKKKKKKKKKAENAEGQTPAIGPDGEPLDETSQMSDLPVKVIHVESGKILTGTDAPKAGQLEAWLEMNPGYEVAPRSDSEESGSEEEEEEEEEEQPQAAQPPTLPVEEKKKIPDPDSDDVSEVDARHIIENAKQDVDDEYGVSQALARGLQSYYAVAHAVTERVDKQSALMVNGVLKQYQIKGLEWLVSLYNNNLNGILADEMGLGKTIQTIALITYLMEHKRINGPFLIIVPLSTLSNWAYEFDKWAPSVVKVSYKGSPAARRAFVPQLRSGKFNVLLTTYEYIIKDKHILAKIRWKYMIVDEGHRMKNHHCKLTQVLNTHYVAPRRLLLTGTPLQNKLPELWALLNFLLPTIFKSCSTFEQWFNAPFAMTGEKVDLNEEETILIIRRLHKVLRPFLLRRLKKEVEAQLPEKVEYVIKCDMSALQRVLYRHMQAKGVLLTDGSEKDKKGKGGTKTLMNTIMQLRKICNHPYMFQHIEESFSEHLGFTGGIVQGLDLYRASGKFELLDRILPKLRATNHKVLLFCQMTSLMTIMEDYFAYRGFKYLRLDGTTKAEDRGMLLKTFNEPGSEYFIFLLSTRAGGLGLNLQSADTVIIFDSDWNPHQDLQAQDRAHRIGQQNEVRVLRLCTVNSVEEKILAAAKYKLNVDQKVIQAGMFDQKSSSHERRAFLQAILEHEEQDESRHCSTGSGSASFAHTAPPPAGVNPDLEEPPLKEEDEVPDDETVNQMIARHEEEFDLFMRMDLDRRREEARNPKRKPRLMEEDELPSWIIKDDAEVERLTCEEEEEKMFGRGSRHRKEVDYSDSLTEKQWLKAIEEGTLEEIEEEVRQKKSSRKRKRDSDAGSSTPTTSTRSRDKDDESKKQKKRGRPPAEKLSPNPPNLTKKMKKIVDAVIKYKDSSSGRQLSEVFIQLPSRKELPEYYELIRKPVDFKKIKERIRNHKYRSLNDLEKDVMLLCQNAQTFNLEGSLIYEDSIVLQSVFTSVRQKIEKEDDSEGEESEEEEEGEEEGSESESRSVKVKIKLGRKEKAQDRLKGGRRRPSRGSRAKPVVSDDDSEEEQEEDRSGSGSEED

Turning to `COC[C@H](NC(=O)c1ccn(S(C)(=O)=O)c1)C(=O)Nc1nc(-c2cccc(N3CC(OC)C3)c2)cs1` [Compound 367], the IC50 on BRG-1 (read-out: BRG1 IP50 (μM)*) and on BRM (read-out: BRM IP50 (μM)*) was more than 0.01 µM each time.
In the case of `COC[C@H](NC(=O)c1ccn(S(C)(=O)=O)c1)C(=O)Nc1nc(-c2cccc(N3C[C@@H](C)O[C@@H](C)C3)c2F)cs1` [Compound 368], the IC50 at BRG-1 (read-out: BRG1 IP50 (μM)*) and at BRM (read-out: BRM IP50 (μM)*) was more than 0.01 µM each time.
Turning to `COC[C@H](NC(=O)c1ccn(S(C)(=O)=O)c1)C(=O)Nc1nc(-c2cccc(N3CCC(O)CC3)c2)cs1` [Compound 369], the IC50 was more than 0.01 µM on BRG-1 (read-out: BRG1 IP50 (μM)*) and less than 0.01 µM at BRM (read-out: BRM IP50 (μM)*).
The corresponding values for `C[C@H](NC(=O)c1ccn(S(C)(=O)=O)c1)C(=O)Nc1nc(-c2cccc(N3CCC(O)CC3)c2)cs1` [Compound 370] are more than 0.01 µM and more than 0.01 µM.
The corresponding values for `COC[C@H](NC(=O)c1ccn(S(C)(=O)=O)c1)C(=O)Nc1nc(-c2cccc(N3C[C@@H](C)O[C@@H](C)C3)c2)cs1` [Compound 371] are less than 0.01 µM and less than 0.01 µM.
The corresponding values for `COC[C@H](NC(=O)c1ccn(S(C)(=O)=O)c1)C(=O)Nc1nc(-c2cccc(N3CCO[C@H](C)C3)c2)cs1` [Compound 372] are more than 0.01 µM and less than 0.01 µM.
On to `COC[C@H](NC(=O)c1ccn(S(C)(=O)=O)c1)C(=O)Nc1nc(-c2cccc(N3CCO[C@@H](C)C3)c2)cs1` [Compound 373], for which the IC50 on BRG-1 (read-out: BRG1 IP50 (μM)*) is more than 0.01 µM; at BRM (read-out: BRM IP50 (μM)*) it was less than 0.01 µM.
The corresponding values for `C[C@@H]1CN(c2cccc(-c3cccc(NC(=O)CNC(=O)c4ccn(S(C)(=O)=O)c4)n3)c2)C[C@H](C)O1` [Compound 374, N-[2-[[6-[3-[(cis)-2,6-dimethylmorpholin-4-yl]phenyl]-2-pyridyl]amino]-2-oxo-ethyl]-1-methylsulfonyl-pyrrole-3-carboxamide] are more than 0.01 µM and more than 0.01 µM.
The corresponding values for `C[C@@H]1CN(c2cccc(-c3csc(NC(=O)[C@H](CO)NC(=O)c4ccn(C5(C)COC5)c4)n3)n2)C[C@H](C)O1` [Compound 375] are more than 0.01 µM and more than 0.01 µM.
The corresponding values for `COC[C@H](NC(=O)c1ccn(C2(C)COC2)c1)C(=O)Nc1nc(-c2ccc(F)c(N3C[C@@H](C)O[C@@H](C)C3)n2)cs1` [Compound 376] are more than 0.01 µM and more than 0.01 µM.
On to `COC[C@H](NC(=O)c1ccn(S(C)(=O)=O)c1)C(=O)Nc1nc(-c2ccc(F)c(N3C[C@@H](C)O[C@@H](C)C3)n2)cs1` [Compound 377], for which the IC50 on BRG-1 (read-out: BRG1 IP50 (μM)*) is more than 0.01 µM; at BRM (read-out: BRM IP50 (μM)*), less than 0.01 µM.
`C[C@@H]1CN(c2nc(-c3csc(NC(=O)CNC(=O)c4ccn(C5(C)COC5)c4)n3)ccc2F)C[C@H](C)O1` [Compound 378]: the results for the IC50 at BRG-1 (read-out: BRG1 IP50 (μM)*) and at BRM (read-out: BRM IP50 (μM)*) were more than 0.01 µM and less than 0.01 µM, respectively.
The corresponding values for `C[C@@H]1CN(c2nc(-c3csc(NC(=O)CNC(=O)c4ccn(S(C)(=O)=O)c4)n3)ccc2F)C[C@H](C)O1` [Compound 379] are less than 0.01 µM and less than 0.01 µM.
Taken in the same sequence, the figures for `COC[C@H](NC(=O)c1ccn(S(C)(=O)=O)c1)C(=O)Nc1nc(-c2cc(F)c(F)c(N3C[C@@H](C)O[C@@H](C)C3)c2)cs1` [Compound 380] were less than 0.01 µM and less than 0.01 µM.
The corresponding values for `COC[C@H](NC(=O)c1ccn(C(C)(C)C)c1)C(=O)Nc1nc(-c2ccnc(N3C[C@@H](C)O[C@@H](C)C3)n2)cs1` [Compound 381] are more than 0.01 µM and less than 0.01 µM.
Turning to `Cn1ncc(-c2cccc(-c3csc(NC(=O)CNC(=O)c4ccn(C(C)(C)C)c4)n3)n2)n1` [Compound 382, 1-tert-butyl-N-[2-[[4-[6-(2-methyltriazol-4-yl)-2-pyridyl]thiazol-2-yl]amino]-2-oxo-ethyl]pyrrole-3-carboxamide], the IC50 on BRG-1 (read-out: BRG1 IP50 (μM)*) and on BRM (read-out: BRM IP50 (μM)*) was more than 0.01 µM throughout.
With `CN1CCCc2ccc(-c3csc(NC(=O)CNC(=O)c4ccn(C(C)(C)C)c4)n3)nc21` [Compound 383], the IC50 is more than 0.1 µM at BRG-1 (read-out: BRG1 IP50 (μM)*) and more than 0.01 µM on BRM (read-out: BRM IP50 (μM)*).
Regarding `C[C@@H]1CN(c2cc(-c3csc(NC(=O)CNC(=O)c4ccn(S(C)(=O)=O)c4)n3)cc(F)c2F)C[C@H](C)O1` [Compound 384], the IC50 at BRG-1 (read-out: BRG1 IP50 (μM)*) and on BRM (read-out: BRM IP50 (μM)*) was less than 0.01 µM each time.
Turning to `CS(=O)(=O)n1ccc(C(=O)NCC(=O)Nc2nc(-c3cccc([C@H]4CC[C@H](O)CC4)c3)cs2)c1` [Compound 386, N-(2-((4-(3-((trans)-4-hydroxycyclohexyl)phenyl)thiazol-2-yl)amino)-2-oxoethyl)-1-(methylsulfonyl)-1H-pyrrole-3-carboxamide], the IC50 at BRG-1 (read-out: BRG1 IP50) and at BRM (read-out: BRM IP50) was less than 0.01 µM in each case.
Take `CS(=O)(=O)n1ccc(C(=O)NCC(=O)Nc2nc(-c3cccc([C@H]4CC[C@@H](O)CC4)c3)cs2)c1` [Compound 387, N-(2-((4-(3-((cis)-4-hydroxycyclohexyl)phenyl)thiazol-2-yl)amino)-2-oxoethyl)-1-(methylsulfonyl)-1H-pyrrole-3-carboxamide]: the IC50 on BRG-1 (read-out: BRG1 IP50) and at BRM (read-out: BRM IP50) was more than 0.01 µM each time.
With `CC1(C)CC(c2cccc(-c3csc(NC(=O)CNC(=O)c4ccn(S(C)(=O)=O)c4)n3)c2)CC(C)(C)O1` [Compound 388], the IC50 on BRG-1 (read-out: BRG1 IP50) was more than 0.1 µM; at BRM (read-out: BRM IP50), more than 0.01 µM.
The corresponding values for `CS(=O)(=O)n1ccc(C(=O)NCC(=O)Nc2nc(-c3cccc(C4=CCN(C5COC5)CC4)c3)cs2)c1` [Compound 389] are more than 0.01 µM and more than 0.01 µM.
In the case of `CS(=O)(=O)n1ccc(C(=O)NCC(=O)Nc2nc(-c3cccc([C@H]4CCCCO4)c3)cs2)c1` [Compound 393], the IC50 at BRG-1 (read-out: BRG1 IP50) and at BRM (read-out: BRM IP50) was more than 0.01 µM each time.
`CN1CCCc2ccc(-c3csc(NC(=O)CNC(=O)c4ccn(S(C)(=O)=O)c4)n3)nc21` [Compound 394]: the IC50 on BRG-1 (read-out: BRG1 IP50) and at BRM (read-out: BRM IP50) was more than 0.01 µM throughout.
On to `CC(C)(C)n1ccc(C(=O)NCC(=O)Nc2nc(-c3cccc(C4(O)CC4)n3)cs2)c1` [Compound 395], for which the IC50 at BRG-1 (read-out: BRG1 IP50) and on BRM (read-out: BRM IP50) was more than 0.1 µM each time.
As for `CS(=O)(=O)n1ccc(C(=O)NCC(=O)Nc2nc(-c3cccc(C4=CCCOC4)c3)cs2)c1` [Compound 396, N-[2-[[4-[3-(3,6-dihydro-2H-pyran-5-yl)phenyl]thiazol-2-yl]amino]-2-oxo-ethyl]-1-methylsulfonyl-pyrrole-3-carboxamide], the IC50 at BRG-1 (read-out: BRG1 IP50) was more than 0.01 µM; at BRM (read-out: BRM IP50), less than 0.01 µM.
Take `CC(C)(C)n1ccc(C(=O)NCC(=O)Nc2nc(-c3cccc(N4CCC5(CC4)COC5)c3)cs2)c1` [Compound 397, N-(2-((4-(3-(2-oxa-7-azaspiro[3.5]nonan-7-yl)phenyl)thiazol-2-yl)amino)-2-oxoethyl)-1-(tert-butyl)-1H-pyrrole-3-carboxamide]: the IC50 on BRG-1 (read-out: BRG1 IP50) and at BRM (read-out: BRM IP50) was more than 0.1 µM in each case.
Take `CS(=O)(=O)n1ccc(C(=O)NCC(=O)Nc2nc(-c3cccc(C4CCOCC4)c3)cs2)c1` [Compound 399]: the IC50 on BRG-1 (read-out: BRG1 IP50) and on BRM (read-out: BRM IP50) was more than 0.01 µM in each case.
In the case of `CS(=O)(=O)n1ccc(C(=O)NCC(=O)Nc2nc(-c3cccc(C4=CCOCC4)c3)cs2)c1` [Compound 400], the IC50 at BRG-1 (read-out: BRG1 IP50) and on BRM (read-out: BRM IP50) was less than 0.01 µM each time.
As to `Cc1ccc(Cl)c(-c2cc(-c3csc(NC(=O)CNC(=O)c4ccn(S(C)(=O)=O)c4)n3)ccc2C)n1` [Compound 401, N-(2-((4-(3-(3-chloro-6-methylpyridin-2-yl)-4-methylphenyl)thiazol-2-yl)amino)-2-oxoethyl)-1-(methylsulfonyl)-1H-pyrrole-3-carboxamide], the IC50 on BRG-1 (read-out: BRG1 IP50) and on BRM (read-out: BRM IP50) was more than 0.1 µM in each case.
On to `Cc1cc(-c2cccc(-c3csc(NC(=O)CNC(=O)c4ccn(C(C)(C)C)c4)n3)c2)cnn1` [Compound 402], for which the IC50 at BRG-1 (read-out: BRG1 IP50) is more than 0.01 µM; on BRM (read-out: BRM IP50), less than 0.01 µM.
Taken in the same sequence, the figures for `CCS(=O)(=O)n1ccc(C(=O)NCC(=O)Nc2nc(-c3cccc(-c4cnn(C)n4)c3)cs2)c1` [Compound 403] were more than 0.01 µM and more than 0.01 µM.
Taken in the same sequence, the figures for `CS(=O)(=O)n1ccc(C(=O)NCC(=O)Nc2nc(-c3cccc(-c4cc5n(n4)CCOC5)c3)cs2)c1` [Compound 404] were more than 0.01 µM and less than 0.01 µM.
`Cc1cc(C)nc(-c2cccc(-c3csc(NC(=O)CNC(=O)c4ccn(S(C)(=O)=O)c4)n3)c2)n1` [Compound 405]: the IC50 on BRG-1 (read-out: BRG1 IP50) and at BRM (read-out: BRM IP50) was less than 0.01 µM each time.
Take `Cc1cc(C)nc(-c2cccc(-c3csc(NC(=O)CNC(=O)c4ccn(S(C)(=O)=O)c4)n3)c2)c1` [Compound 406]: the IC50 on BRG-1 (read-out: BRG1 IP50) and on BRM (read-out: BRM IP50) was less than 0.01 µM in each case.
Take `Cc1cccc(-c2cccc(-c3csc(NC(=O)CNC(=O)c4ccn(S(C)(=O)=O)c4)n3)c2)n1` [Compound 407]: the IC50 on BRG-1 (read-out: BRG1 IP50) and at BRM (read-out: BRM IP50) was less than 0.01 µM in each case.
Consider `CS(=O)(=O)n1ccc(C(=O)NCC(=O)Nc2nc(-c3cccc(-c4ccnc(N5CCC5)n4)c3)cs2)c1` [Compound 408, N-[2-[[4-[3-[2-(azetidin-1-yl)pyrimidin-4-yl]phenyl]thiazol-2-yl]amino]-2-oxo-ethyl]-1-methylsulfonyl-pyrrole-3-carboxamide], for which the IC50 at BRG-1 (read-out: BRG1 IP50) and at BRM (read-out: BRM IP50) was less than 0.01 µM throughout.
On to `CS(=O)(=O)n1ccc(C(=O)NCC(=O)Nc2nc(-c3cccc(-c4ccnc(C5CC5)n4)c3)cs2)c1` [Compound 409], for which the IC50 on BRG-1 (read-out: BRG1 IP50) and at BRM (read-out: BRM IP50) was less than 0.01 µM each time.
As to `CS(=O)(=O)n1ccc(C(=O)NCC(=O)Nc2nc(-c3cccc(-c4ccnc(Cl)n4)c3)cs2)c1` [Compound 410], the IC50 on BRG-1 (read-out: BRG1 IP50) and on BRM (read-out: BRM IP50) was less than 0.01 µM throughout.
In the case of `CC1(C)C=C(c2cccc(-c3csc(NC(=O)CNC(=O)c4ccn(S(C)(=O)=O)c4)n3)c2)CC(C)(C)O1` [Compound 411], the IC50 at BRG-1 (read-out: BRG1 IP50) and on BRM (read-out: BRM IP50) was more than 0.01 µM each time.
